Experimental data: patent publication US10882869B2, “Condensed heterocyclic compounds and pesticides” (NISSAN CHEMICAL CORPORATION, priority 2015, dated 2021)

Legend:
Format in all cases: in vivo
Plutella xylostella [1] = assay: Insecticidal test on Plutella xylostella (cabbage leaves soaked); details: 144 h, 500 ppm solution, 3rd-instar larvae, 6 days after, 25° C.
Procedure: (§1) Leaves of cabbage were soaked in the solutions for about 10 seconds. After the soaking, the leaves were dried in air and placed in dishes. In each dish, five 3rd-instar larvae of Plutella xylostella were released, and the dishes were covered with lids and placed in an incubator at 25° C. 6 Days after, dead insects in the dishes were counted, and the mortality was calculated by using the same equation as in Test Example 1. The test was carried out in duplicate.

Rhipicephalus sanguineus = assay: Test on the effect on Rhipicephalus sanguineus (thin film in glass container); details: 96 h, application dose 10 μg/cm^2, protonymphs, 4 days after release, 25° C.
Procedure: (§2) 350 μl of the solutions were applied to the bottoms and the side walls of glass containers with an inner wall surface area of 35 cm^2, and acetone was volatilized to prepare thin films of the compounds on the inner walls of the glass containers. Since the inner wall surface area of each glass container was 35 cm^2, the application dose was 10 μg/cm^2.
(§3) To each glass container, five protonymphs (male and female) of Rhipiceohalus sanguineus were released, and the containers were covered with lids and placed in an incubator at 25° C. 4 Days after the release of the ticks, dead ticks were counted, and the mortality was calculated by using the same equation as in Test Example 1.

Ctenocephalides felis = assay: Test on the effect on Ctenocephalides felis (thin film in glass container); details: 96 h, application dose 10 μg/cm^2, adults, 4 days after release, 25° C.
Procedure: as §2
as §3, with “adults” for “protonymphs”, “Ctenocephalides felis” for “Rhipiceohalus sanguineus”, “fleas,” for “ticks,”, “fleas” for “ticks”

Spodoptera litura = assay: Insecticidal test on Spodoptera litura (cabbage leaves soaked); details: 144 h, 500 ppm solution, 3rd-instar larvae, 6 days after, 25° C.
Procedure: as §1, with “Spodoptera litura” for “Plutella xylostella”

Plutella xylostella [2] = assay: Soil irrigation test on Plutella xylostella; details: 144 h, 500 ppm solution, 10 ml soil irrigation of cabbage seedlings, leaves picked 5 days after, 3rd-instar larvae, 6 days after
Procedure: The soil around the bases of cabbage seedlings (at the 2.5-leaf stage) planted in plastic cups was irrigated with 10 ml of the solutions. After the irrigation, the cabbage seedlings were placed in a greenhouse. 5 Days after the irrigation, leaves of cabbage were picked and placed in dishes. In each dish, five 3rd-instar larvae of Plutella xylostella were released, and the dishes were covered with lids and placed in an incubator at 25° C. 6 Days after, dead insects in the dishes were counted, and the mortality was calculated by using the same equation as in Test Example 1. The test was carried out in duplicate.

Myzus persicae = assay: Insecticidal test on Myzus persicae (cabbage leaf spray); details: 144 h, 500 ppm solution sprayed (2.5 mg/cm^2), apterous adults on cabbage leaves, 6 days after, 25° C.
Procedure: Wet absorbent cotton was laid on glass dishes having an inner diameter of 3 cm, and covered with leaves of cabbage cut into circles of the same diameter, and 4 apterous adults of Myzus persicae were released. […] The solutions were sprayed from a rotary spray tower (2.5 mg/cm^2), and the dishes were covered with lids and placed in an incubator at 25° C. 6 Days after, dead insects were counted, and the mortality was calculated by using the same equation as in Test Example 1. The test was carried out in duplicate.

Nilaparvata lugens [3] = assay: Insecticidal test on Nilaparvata lugens (rice sheaths soaked); details: 144 h, 500 ppm solution, 3rd-instar larvae, 6 days after, 25° C.
Procedure: Rice sheaths were soaked in the solutions for about 10 seconds. After the soaking, the rice sheaths were dried in air and put in test tubes. In each tube, five 3rd-instar larvae of Nilaparvata lugens were released, and the tubes were capped with sponge and placed in an incubator at 25° C. 6 Days after, dead insects in the test tubes were counted, and the mortality (%) (the number of dead insects÷the number of released insects×100) was calculated. The test was carried out in duplicate.

Nilaparvata lugens [4] = assay: Systemic insecticidal test on Nilaparvata lugens (rice seedling root dip); details: 20 ppm solution, rice seedling roots dipped 7 days, 3rd-instar larvae, 6 days after release, 25° C.
Procedure: 7 Days after, the rice seedlings were picked and put in test tubes, and in each tube, five 3rd-instar larvae of Nilaparvata lugens were released, and the tubes were capped with sponge and placed in an incubator at 25° C. 6 Days after the release of the insects, dead insects were counted, and the mortality (%) (the number of dead insects÷the number of released insects×100) was calculated. The test was carried out in duplicate.

[5] = test system: Frankliniella occidentalis; assay: Insecticidal activity on Frankliniella occidentalis (kidney bean leaf spray); details: 48 h, 500 ppm solution sprayed (2.5 mg/cm^2), larvae on kidney bean leaves, 2 days after
Procedure: In styrol cups having an inner diameter of 7 cm, wet filter paper was laid, kidney bean leaves cut into a 3 cm square were laid on the paper, and each leaf was inoculated with 20 larvae of Frankliniella occidentalis. […] 2.5 ml of the solutions were sprayed from a rotary spray tower into the styrol cups (2.5 mg/cm^2).
2 Days after, dead insects were counted, and insect damage on kidney bean leaves was examined. The mortality was calculated by using the same equation as in Test Example 1.
The insect damage degree was evaluated as follows. 1: 0 to 20% insect damage, 2: 20 to 50% insect damage, 3: 50 to 70% insect damage, and 4: 70% or higher insect damge. The test was carried out in duplicate.

Structure (SMILES) | mortality at 500 ppm (Plutella xylostella [1]) | mortality at 10 µg/cm2 (Rhipicephalus sanguineus) | mortality at 10 µg/cm2 (Ctenocephalides felis) | mortality at 500 ppm (Spodoptera litura) | pest or weed control at 500 ppm (Plutella xylostella [2]) | mortality at 500 ppm (Myzus persicae) | mortality at 500 ppm (Nilaparvata lugens [3]) | mortality at 20 ppm (Nilaparvata lugens [4]) | mortality at 500 ppm [5]
CCSc1c(-c2nc3cc(C(F)(F)F)ncc3n2C)nc2cc(Cl)ccn12 [1-8-006b, 2-[7-chloro-3-(ethylthio)imidazo[1,2-a]pyridin-2-yl]-3-methyl-6-(trifluoromethyl)-3H-imidazo[4,5-c]pyridine] | ≥ 90% | ≥ 50% | ≥ 50% | ≥ 90% |  |  |  |  | 
CCS(=O)(=O)c1c(-c2nc3cc(C(F)(F)F)nc(C)c3n2C)nc2ccc(C(F)(F)F)cn12 [1-8-003a, 2-[3-(ethylsulfonyl)-6-(trifluoromethyl)imidazo[1,2-a]pyridin-2-yl]-3,4-dimethyl-6-(trifluoromethyl)-3H-imidazo[4,5-c]pyridine] |  |  | ≥ 50% | ≥ 90% | ≥ 90% |  |  |  | 
CCS(=O)(=O)c1c(-n2cc3ncc(C(F)(F)F)cc3n2)nc2cc(C(F)(F)F)ccn12 [1-10-002a, 2-[3-(ethylsulfonyl)-7-(trifluoromethyl)imidazo[1,2-a]pyridin-2-yl]-6-(trifluoromethyl)-2H-pyrazolo[4,3-b]pyridine] | ≥ 90% |  | ≥ 50% | ≥ 90% | ≥ 90% | ≥ 90% |  |  | 
CCS(=O)(=O)c1c(-n2cc3cnc(C(F)(F)F)cc3n2)nc2cc(C(F)(F)F)ccn12 [1-11-001a, 2-[3-(ethylsulfonyl)-7-(trifluoromethyl)imidazo[1,2-a]pyridin-2-yl]-6-(trifluoromethyl)-2H-pyrazolo[4,3-c]pyridine] | ≥ 90% |  | ≥ 50% | ≥ 90% | ≥ 90% | ≥ 90% | ≥ 90% | ≥ 90% | 
CCS(=O)(=O)c1c(-c2cn3c(C)nc(C(F)(F)C(F)(F)F)cc3n2)nc2ccc(C(F)(F)F)cn12 [1-3-007a, 2-[3-(ethylsulfonyl)-6-(trifluoromethyl)imidazo[1,2-a]pyridin-2-yl]-5-methyl-7-(perfluoroethyl)imidazo[1,2-c]pyrimidine] | ≥ 90% |  | ≥ 50% | ≥ 90% |  | ≥ 90% | ≥ 90% | ≥ 90% | 
CCSc1c(-c2nc3cc(C(F)(F)F)cnc3n2C)nc2cc(C(F)(F)F)ncn12 [1-1-055b, 2-[3-(ethylthio)-7-(trifluoromethyl)imidazo[1,2-c]pyrimidin-2-yl]-3-methyl-6-(trifluoromethyl)-3H-imidazo[4,5-b]pyridine] |  |  |  |  |  |  |  |  | ≥ 50%
CCSc1c(-c2nc3cc(C(F)(F)F)cnc3n2C)n(C)c2ccc(C(F)(F)F)cc12 [3-1-001b, 2-[3-(ethylthio)-1-methyl-5-(trifluoromethyl)-1H-indol-2-yl]-3-methyl-6-(trifluoromethyl)-3H-imidazo[4,5-b]pyridine] | ≥ 90% |  | ≥ 50% |  |  |  |  |  | ≥ 50%
CCSc1c(-c2nc3cc(C(F)(F)F)cnc3n2C)nc2cc(C(F)(F)F)ccn12 [1-1-002b, 2-[3-(ethylthio)-7-(trifluoromethyl)imidazo[1,2-a]pyridin-2-yl]-3-methyl-6-(trifluoromethyl)-3H-imidazo[4,5-b]pyridine] | ≥ 90% |  | ≥ 50% | ≥ 90% |  | ≥ 90% |  |  | ≥ 50%
CCS(=O)(=O)c1c(-c2cn3ncc(C(F)(F)F)cc3n2)nc2cc(C(F)(F)F)ccn12 [1-4-001a, 2-[3-(ethylsulfonyl)-7-(trifluoromethyl)imidazo[1,2-a]pyridin-2-yl]-7-(trifluoromethyl)imidazo[1,2-b]pyridazine] | ≥ 90% |  | ≥ 50% | ≥ 90% | ≥ 90% | ≥ 90% |  |  | 
CCS(=O)(=O)c1c(-c2nc3cc(C(F)(F)F)cnc3n2C)nc2cc(C(F)(F)F)ncn12 [1-1-055a, 2-[3-(ethylsulfonyl)-7-(trifluoromethyl)imidazo[1,2-c]pyrimidin-2-yl]-3-methyl-6-(trifluoromethyl)-3H-imidazo[4,5-b]pyridine] | ≥ 90% | ≥ 50% | ≥ 50% |  |  |  |  |  | 
CCS(=O)(=O)c1c(-c2nc3cc(C(F)(F)F)cnc3n2C)n(C)c2ccc(C(F)(F)F)cc12 [3-1-001a, 2-[3-(ethylsulfonyl)-1-methyl-5-(trifluoromethyl)-1H-indol-2-yl]-3-methyl-6-(trifluoromethyl)-3H-imidazo[4,5-b]pyridine] | ≥ 90% |  | ≥ 50% | ≥ 90% |  | ≥ 90% |  |  | ≥ 50%
CCS(=O)(=O)c1c(-c2nc3cc(C(F)(F)F)cnc3n2C)nc2cnc(C(F)(F)F)cn12 [1-1-029a, 2-[3-(ethylsulfonyl)-6-(trifluoromethyl)imidazo[1,2-a]pyrazin-2-yl]-3-methyl-6-(trifluoromethyl)-3H-imidazo[4,5-b]pyridine] | ≥ 90% |  | ≥ 50% | ≥ 90% | ≥ 90% |  |  |  | 
CCSc1c(-c2nc3cc(C(F)(F)F)cnc3n2C)nc2ncc(C(F)(F)F)cn12 [1-1-054b, 2-[3-(ethylthio)-6-(trifluoromethyl)imidazo[1,2-a]pyrimidin-2-yl]-3-methyl-6-(trifluoromethyl)-3H-imidazo[4,5-b]pyridine] |  |  | ≥ 50% |  |  |  |  |  | ≥ 50%
CCSc1c(-c2nc3cc(SC(F)(F)F)cnc3n2C)nc2cc(C(F)(F)F)ccn12 [1-1-027b, 2-[3-(ethylthio)-7-(trifluoromethyl)imidazo[1,2-a]pyridin-2-yl]-3-methyl-6-((trifluoromethyl)thio)-3H-imidazo[4,5-b]pyridine] | ≥ 90% | ≥ 50% | ≥ 50% | ≥ 90% |  |  |  |  | 
CCS(=O)(=O)c1c(-c2nc3cc(C(F)(F)F)cnc3n2C)nc2sc(C(F)(F)F)nn12 [2-1-002a, 5-(ethylsulfonyl)-6-[3-methyl-6-(trifluoromethyl)-3H-imidazo[4,5-b]pyridin-2-yl]-2-(trifluoromethyl)imidazo[2,1-b][1,3,4]thiadiazole] | ≥ 90% |  |  |  | ≥ 90% | ≥ 90% |  | ≥ 90% | ≥ 50%
